Measurements: the NIST ThermoML archive (doi:10.1021/je060271a)
Numbers after ± are expanded uncertainties.

Conditions: 343.15 K, Liquid, Vibrating tube method

CCCCCC(=O)OCC(COC(=O)CCCCC)(COC(=O)CCCCC)COC(=O)CCCCC [pentaerythritol tetrahexanoate]
Conditions	mass density [kg/m3]
5696.7 kPa	961.3 ± 1.2
5737.4 kPa	961.4 ± 1.2
5771.4 kPa	961.4 ± 1.2
5805.5 kPa	961.6 ± 1.2
5839.7 kPa	961.6 ± 1.2
5880 kPa	961.6 ± 1.2
5913.7 kPa	961.6 ± 1.2
5948.1 kPa	961.5 ± 1.2
5988.1 kPa	961.6 ± 1.2
6021.6 kPa	961.7 ± 1.2
6055.8 kPa	961.8 ± 1.2
6095.9 kPa	961.7 ± 1.2
6130 kPa	961.7 ± 1.2
6163.7 kPa	961.6 ± 1.2
6303.4 kPa	962.1 ± 1.2
6343 kPa	961.7 ± 1.2
6375.6 kPa	961.9 ± 1.2
6408.1 kPa	961.9 ± 1.2
6440.4 kPa	961.9 ± 1.2
6478.6 kPa	962.1 ± 1.2
6509.9 kPa	962 ± 1.2
6541 kPa	962.1 ± 1.2
6572.6 kPa	962.1 ± 1.2
6608.9 kPa	962.2 ± 1.2
6752.3 kPa	962.2 ± 1.2
6777.5 kPa	962.2 ± 1.2
6802.4 kPa	962.2 ± 1.2
6831.3 kPa	962.4 ± 1.2
6854.2 kPa	962.2 ± 1.2
6882.2 kPa	962.3 ± 1.2
6906 kPa	962.3 ± 1.2
6930.2 kPa	962.3 ± 1.2
6953.5 kPa	962.4 ± 1.2
6977.2 kPa	962.4 ± 1.2
7001.2 kPa	962.4 ± 1.2
7029.7 kPa	962.4 ± 1.2
7054.1 kPa	962.6 ± 1.2
7078.2 kPa	962.6 ± 1.2
7102.1 kPa	962.5 ± 1.2
7130.7 kPa	962.4 ± 1.2
7154.9 kPa	962.5 ± 1.2
7179.4 kPa	962.5 ± 1.2
7208.3 kPa	962.6 ± 1.2
7233.7 kPa	962.6 ± 1.2
7260 kPa	962.6 ± 1.2
7284.4 kPa	962.6 ± 1.2
7309.2 kPa	962.7 ± 1.2
7338.6 kPa	962.7 ± 1.2
7363.8 kPa	962.7 ± 1.2
7388.9 kPa	962.6 ± 1.2
7418.5 kPa	962.7 ± 1.2
7443.8 kPa	962.8 ± 1.2
7469 kPa	962.8 ± 1.2
7499.3 kPa	962.8 ± 1.2
7524.9 kPa	962.8 ± 1.2
7767.9 kPa	962.9 ± 1.2
7799 kPa	963 ± 1.2
7825.1 kPa	963.1 ± 1.2
7851.3 kPa	962.9 ± 1.2
7877.7 kPa	963.1 ± 1.2
7909.5 kPa	963.1 ± 1.2
7936.7 kPa	963 ± 1.2
7963.5 kPa	963.3 ± 1.2
7989.9 kPa	963.2 ± 1.2
8021.4 kPa	963.1 ± 1.2
8047.9 kPa	963.1 ± 1.2
8074.4 kPa	963.2 ± 1.2
8105.7 kPa	963.3 ± 1.2
8131.9 kPa	963.3 ± 1.2
8158.1 kPa	963.4 ± 1.2
8189.5 kPa	963.3 ± 1.2
8215.6 kPa	963.3 ± 1.2
8242.5 kPa	963.3 ± 1.2
8269.2 kPa	963.4 ± 1.2
8301.8 kPa	963.4 ± 1.2
8328.6 kPa	963.3 ± 1.2
8355.6 kPa	963.5 ± 1.2
8382.4 kPa	963.3 ± 1.2
8415.2 kPa	963.5 ± 1.2
8442.4 kPa	963.4 ± 1.2
8469.3 kPa	963.5 ± 1.2
8502.3 kPa	963.5 ± 1.2
8646.3 kPa	963.7 ± 1.2
8736.5 kPa	963.7 ± 1.2
8764.6 kPa	963.7 ± 1.2
8798.5 kPa	963.7 ± 1.2
8827.2 kPa	963.9 ± 1.2
8855.8 kPa	963.7 ± 1.2
8890.1 kPa	963.9 ± 1.2
8919.1 kPa	963.8 ± 1.2
8953.7 kPa	964 ± 1.2
8982.7 kPa	963.9 ± 1.2
9012.2 kPa	963.9 ± 1.2
9047.3 kPa	964 ± 1.2
9077.3 kPa	963.9 ± 1.2
9107.5 kPa	964 ± 1.2
9137.5 kPa	964 ± 1.2
9173.3 kPa	964 ± 1.2
9362.4 kPa	964.1 ± 1.2
9399.5 kPa	964.2 ± 1.2
9430.7 kPa	964.2 ± 1.2
9462.9 kPa	964.2 ± 1.2
9496.5 kPa	964.2 ± 1.2
9527.5 kPa	964.2 ± 1.2
9565.2 kPa	964.4 ± 1.2
9800.6 kPa	964.4 ± 1.2
11008 kPa	965.5 ± 1.2
11050 kPa	965.3 ± 1.2
11087 kPa	965.3 ± 1.2
11123 kPa	965.3 ± 1.2
11159 kPa	965.4 ± 1.2
11202 kPa	965.4 ± 1.2
11238 kPa	965.5 ± 1.2
11274 kPa	965.6 ± 1.2
11701 kPa	965.7 ± 1.2
11736 kPa	965.9 ± 1.2
11778 kPa	965.9 ± 1.2
11813 kPa	965.9 ± 1.2
11848 kPa	966 ± 1.2
11889 kPa	965.9 ± 1.2
11924 kPa	965.9 ± 1.2
11958 kPa	966 ± 1.2
11998 kPa	966.1 ± 1.2
12031 kPa	966.2 ± 1.2
12159 kPa	966.1 ± 1.2
12190 kPa	966.2 ± 1.2
12236 kPa	966.3 ± 1.2
12264 kPa	966.2 ± 1.2
12287 kPa	966.4 ± 1.2
12310 kPa	966.3 ± 1.2
12337 kPa	966.4 ± 1.2
12361 kPa	966.4 ± 1.2
12383 kPa	966.3 ± 1.2
12808 kPa	966.7 ± 1.2
12827 kPa	966.7 ± 1.2
12842 kPa	966.7 ± 1.2
12857 kPa	966.7 ± 1.2
12873 kPa	966.7 ± 1.2
12892 kPa	966.7 ± 1.2
12909 kPa	966.7 ± 1.2
12927 kPa	966.8 ± 1.2
12989 kPa	966.8 ± 1.2
13011 kPa	966.7 ± 1.2
13039 kPa	966.9 ± 1.2
13064 kPa	967 ± 1.2
